Measurements taken from ChEMBL document CHEMBL3885861, “Open TG-GATES”.

Species on record: Rattus norvegicus
Assay: Open TG-GATES - Regimen: Single
Assay type: toxicity, organism-based, Sprague-Dawley
Set-up: regimen Single, gender Male, age 6 weeks
Conditions: in vivo, po, 15 mg/kg, route gavage, dose level Low; for APTT / Bas / Eos / Fbg / Hb / Ht / Lym / MCHC / MCV / Mono / Neu / PT / Plat / RBC / Ret / WBC: tissue Blood; for KIDNEY_L / KIDNEY_R / KIDNEY_TOTAL: tissue Kidney; for LIVER: tissue Liver; for ALP / ALT / AST / BUN / CRE / Ca / Cl / DBIL / GLC / IP / K / LDH / Na / PL / RALB / TBIL / TC / TG / TP / gamma-GTP: tissue Plasma

`C1CCC(C(CC2CCCCN2)C2CCCCC2)CC1` (centres undefined) [PERHEXILINE] gave a TERMINAL_BW (3 h) of 217 g, an APTT (3 h) of 20.2 s and a Bas (3 h) of 0%. It also gave an Eos (3 h) of 0.6%, a Fbg (3 h) of 331 mg/dL and a Hb (3 h) of 13.3 g/dL. It also gave a Ht (3 h) of 39.6%, a Lym (3 h) of 79.8% and an MCHC (3 h) of 33.5%. For the same compound, the MCV (3 h) was 63.8 fL, the Mono (3 h) was 1.8% and the Neu (3 h) was 16.8%. For the same compound, the PT (3 h) was 15.6 s, the Plat (3 h) was 121.9 x10_4/uL and the RBC (3 h) was 620.8 x10_4/ul. For the same compound, the Ret (3 h) was 7.8%, the WBC (3 h) was 62.3 x10_2/uL and the KIDNEY_L (3 h) was 1 g. It also gave a KIDNEY_R (3 h) of 1 g, a KIDNEY_TOTAL (3 h) of 1.9 g and an LIVER (3 h) of 10.1 g. The ALP (3 h) was 1601.6 IU/L, the ALT (3 h) was 47 IU/L and the AST (3 h) was 74 IU/L. It also gave a BUN (3 h) of 13 mg/dL, a CRE (3 h) of 0.1 mg/dL and a Ca (3 h) of 11 mg/dL. It also gave a Cl (3 h) of 105.6 meq/L, a DBIL (3 h) of 0.002 mg/dL and a GLC (3 h) of 181.2 mg/dL. The IP (3 h) was 8.6 mg/dL, the K (3 h) was 4 meq/L and the LDH (3 h) was 183.8 IU/L. For the same compound, the Na (3 h) was 140.8 meq/L, the PL (3 h) was 149.4 mg/dL and the RALB (3 h) was 3.2 g/dL. The TBIL (3 h) was 0.022 mg/dL, the TC (3 h) was 81.2 mg/dL and the TG (3 h) was 90.2 mg/dL. The TP (3 h) was 5.7 g/dL, the gamma-GTP (3 h) was 0.6 IU/L and the TERMINAL_BW (6 h) was 212 g. It also gave an APTT (6 h) of 20.7 s, a Bas (6 h) of 0% and an Eos (6 h) of 0.8%. The Fbg (6 h) was 320.2 mg/dL, the Hb (6 h) was 13.1 g/dL and the Ht (6 h) was 39.6%. For the same compound, the Lym (6 h) was 79.6%, the MCHC (6 h) was 33.1% and the MCV (6 h) was 64.4 fL. It also gave a Mono (6 h) of 2%, a Neu (6 h) of 16.4% and a PT (6 h) of 15.6 s. For the same compound, the Plat (6 h) was 134.6 x10_4/uL, the RBC (6 h) was 615.4 x10_4/ul and the Ret (6 h) was 7.9%. For the same compound, the WBC (6 h) was 77.4 x10_2/uL, the KIDNEY_L (6 h) was 1 g and the KIDNEY_R (6 h) was 1 g. It also gave a KIDNEY_TOTAL (6 h) of 2 g, an LIVER (6 h) of 9.5 g and an ALP (6 h) of 1590.2 IU/L. The ALT (6 h) was 39 IU/L, the AST (6 h) was 70 IU/L and the BUN (6 h) was 10.6 mg/dL. The CRE (6 h) was 0.1 mg/dL, the Ca (6 h) was 10.9 mg/dL and the Cl (6 h) was 105.8 meq/L. It also gave a DBIL (6 h) of 0 mg/dL, a GLC (6 h) of 170.4 mg/dL and an IP (6 h) of 9.5 mg/dL. For the same compound, the K (6 h) was 4.4 meq/L, the LDH (6 h) was 209.6 IU/L and the Na (6 h) was 139.2 meq/L. For the same compound, the PL (6 h) was 134.6 mg/dL, the RALB (6 h) was 3.1 g/dL and the TBIL (6 h) was 0.018 mg/dL. The TC (6 h) was 77.2 mg/dL, the TG (6 h) was 73.6 mg/dL and the TP (6 h) was 5.6 g/dL. For the same compound, the gamma-GTP (6 h) was 1 IU/L, the TERMINAL_BW (9 h) was 204.6 g and the APTT (9 h) was 21.4 s. For the same compound, the Bas (9 h) was 0%, the Eos (9 h) was 0.8% and the Fbg (9 h) was 303.4 mg/dL. For the same compound, the Hb (9 h) was 12.8 g/dL, the Ht (9 h) was 38.4% and the Lym (9 h) was 76.2%. The MCHC (9 h) was 33.5%, the MCV (9 h) was 62.1 fL and the Mono (9 h) was 1.6%. For the same compound, the Neu (9 h) was 21%, the PT (9 h) was 15.5 s and the Plat (9 h) was 127.1 x10_4/uL. For the same compound, the RBC (9 h) was 619.8 x10_4/ul, the Ret (9 h) was 7% and the WBC (9 h) was 67.3 x10_2/uL. For the same compound, the KIDNEY_L (9 h) was 1 g, the KIDNEY_R (9 h) was 1 g and the KIDNEY_TOTAL (9 h) was 2 g. The LIVER (9 h) was 8.9 g, the ALP (9 h) was 1312.6 IU/L and the ALT (9 h) was 38 IU/L. For the same compound, the AST (9 h) was 65.8 IU/L, the BUN (9 h) was 10.2 mg/dL and the CRE (9 h) was 0.1 mg/dL. For the same compound, the Ca (9 h) was 11 mg/dL, the Cl (9 h) was 105.6 meq/L and the DBIL (9 h) was 0.004 mg/dL. It also gave a GLC (9 h) of 172 mg/dL, an IP (9 h) of 9.4 mg/dL and a K (9 h) of 3.9 meq/L. For the same compound, the LDH (9 h) was 186.2 IU/L, the Na (9 h) was 139.6 meq/L and the PL (9 h) was 124.4 mg/dL. The RALB (9 h) was 3.1 g/dL, the TBIL (9 h) was 0.014 mg/dL and the TC (9 h) was 68.8 mg/dL. It also gave a TG (9 h) of 49.2 mg/dL, a TP (9 h) of 5.7 g/dL and a gamma-GTP (9 h) of 1 IU/L. It also gave a TERMINAL_BW (24 h) of 216.9 g, an APTT (24 h) of 20.4 s and a Bas (24 h) of 0%. The Eos (24 h) was 0.8%, the Fbg (24 h) was 319.6 mg/dL and the Hb (24 h) was 13.3 g/dL. For the same compound, the Ht (24 h) was 39.1%, the Lym (24 h) was 77.8% and the MCHC (24 h) was 34.1%. It also gave an MCV (24 h) of 63.5 fL, a Mono (24 h) of 1.8% and a Neu (24 h) of 18.6%. The PT (24 h) was 15.8 s, the Plat (24 h) was 130.2 x10_4/uL and the RBC (24 h) was 616.8 x10_4/ul. For the same compound, the Ret (24 h) was 6.2%, the WBC (24 h) was 108.7 x10_2/uL and the KIDNEY_L (24 h) was 1 g. The KIDNEY_R (24 h) was 1 g, the KIDNEY_TOTAL (24 h) was 1.9 g and the LIVER (24 h) was 10 g. It also gave an ALP (24 h) of 1593 IU/L, an ALT (24 h) of 47 IU/L and an AST (24 h) of 70.6 IU/L. It also gave a BUN (24 h) of 17 mg/dL, a CRE (24 h) of 0.1 mg/dL and a Ca (24 h) of 10.8 mg/dL. It also gave a Cl (24 h) of 106.8 meq/L, a DBIL (24 h) of 0 mg/dL and a GLC (24 h) of 185.6 mg/dL. The IP (24 h) was 7.1 mg/dL, the K (24 h) was 4.1 meq/L and the LDH (24 h) was 212.8 IU/L. The Na (24 h) was 142 meq/L, the PL (24 h) was 158.8 mg/dL and the RALB (24 h) was 3.2 g/dL. It also gave a TBIL (24 h) of 0.012 mg/dL, a TC (24 h) of 81.8 mg/dL and a TG (24 h) of 122 mg/dL. It also gave a TP (24 h) of 5.7 g/dL and a gamma-GTP (24 h) of 1 IU/L.
